What was measured:
[1] = In vitro release of stem cell recruitment factor (SP) and VP from hydrogels; format: physicochemical; conditions: physiological saline, 37° C., 100 rpm, 28 days; CHHA+SP and CHHA-VP+SP hydrogels
Experimental: First, an HA+VP solution was prepared by simply mixing VP with the HA solution prepared in Example 3 at a concentration of 320 μg/mL, and SP, which is a stem cell recruitment factor, was mixed with each of the HA solution and HA-VP solution at a concentration of 2 μg/mL to prepare an HA+SP solution and HA−VP+SP solution, respectively.
Next, 100 μL of the CH solution and 100 μL of the HA+VP solution were mixed in a vial to prepare 200 μL of a CHHA+VP hydrogel, and 100 μL of the CH solution and 100 μL of the HA-VP solution were mixed in a vial to prepare 200 μL of a CHHA-VP hydrogel.
In addition, 100 μL of the CH solution and 100 μL of HA+SP solution were mixed in a vial to prepare 200 μL of a CHHA+SP hydrogel, and 100 μL of the CH solution and 100 μL of the HA-VP+SP solution were mixed in a vial to prepare 200 μL of a CHHA-VP+SP hydrogel.
3 mL of a physiological saline was placed in each vial and stored in an incubator at 100 rpm and 37° C., and after taking 1 mL of the physiological saline from the vial at a predetermined time, 1 mL of a new physiological saline was added to the vial, and it was carried it out for 28 days to conduct a release experiment.

[2] = system: human-derived mesenchymal stem cells (hMSCs); assay: SP's ability to recruit stem cells (trans well migration); format: cell-based
Experimental: First, human-derived mesenchymal stem cells (hMSCs) were labeled with PKH 26 dye (Sigma, USA) and then dispensed in the upper chamber (8.0 μm pore size) of a 24-well trans well plate (SPL, Korea) to be 5×10^4 cells. After culturing in the upper chamber for 48 hours using serum-free DMEM (Dubelco's modified eagle medium, Gibco, USA) medium, DMEM containing 1 μg/mL SP and 1% FBS (fetal bovine serum, Gibco, USA) was added to the bottom well, and the medium was replaced every 3 days, and the hMSCs that migrated to the bottom well were observed using a fluorescence microscope (Olympus, Japan). As a control group, DMEM (including 1% FBS) without SP was added to the bottom well and observed.

[3] = 1 μg/mL SP in bottom well, DMEM with 1% FBS

## Substance P [SP]
[1]
  release of SP from hydrogel: release of SP occurred regardless of the chemical introduction of VP
[2]; [3]
  Migration rate of hMSC: 1.9 × 10^3 cells/day
  Rate constant: -0.49 day⁻¹
[2]; SP present compared with SP absent
  cells migrated to the lower side: more cells migrated to the lower side
[2]; SP relative to Cont (no SP)
  Relative migration rate: 1.7
